Laboratory results from patent US20250161312A1, “A METHOD FOR THE TREATMENT OF CHEMOTHERAPEUTIC DRUG-INDUCED NEPHROTOXICITY” (INSTITUT NATIONAL DE LA SANTÉ ET DE LA RECHERCHE MÉDICALE, priority 2022, published 2025).

Columns and labels:
[1] = system: RPTEC/hTERT cells; test: Caspase 3/7 activity in RPTEC cells; type: cell-based, human; details: cisplatin 50 μM, 48 hours
Experimental: (§1) Cells were cultured in DMEM/F12 medium (Dulbecco's modified Eagle's medium and Ham's F12 medium, Thermo Fisher) supplemented with 1% penicillin/streptomycin, 5 pmol/L triiodo-L-thyronine, 10 ng/ml recombinant human epidermal growth factor, 3.5 μg/mL ascorbic acid, 5.0 μg/mL human transferrin, 5.0 μg/mL insulin, 25 ng/mL prostaglandin E1, 25 ng/ml hydrocortisone, 8.65 ng/mL sodium selenite, 0.1 mg/mL G418 and 1.2 g/L sodium bicarbonate (Sigma). Lewis lung carcinoma mouse LLC1 cells were cultured in DMEM glutamax (Thermo Fisher) containing 10% fetal calf serum and 1% penicillin/streptomycin. Cells were cultured at 37° C. in a humidified atmosphere of 5% CO2.
(§2) Apoptosis was assessed in RPTEC/hTERT and LLC1 cell lysates using the caspase-Glo 3/7 assay (Promega) according to manufacturer's recommendations.

[2] = system: RPTEC/hTERT1 cells; test: Catalase activity; type: cell-based, human; details: cisplatin 50 μM, KW6002 25 μM, 48 hours
Experimental: Catalase activity was assessed using the Catalase Colorimetric Activity Kit (Thermo Fisher Scientific) according to the manufacturer's instructions.

[3] = system: LLC1 cells; test: Caspase 3/7 activity in LLC1 cells; type: cell-based, mouse
Experimental: FIG. 7. […] Caspase 3/-7 activity (n=3 independent experiments) (A) and the number of γH2AX nuclear foci (n=36-63 nuclei/group) (B) were determined. […] Results are expressed as the mean±SEM (n=3 independent experiments). (E) Tail moment was assessed by comet assay. A total of 50 cells per condition were analyzed. *** P<0.001; 1-way ANOVA followed by Tukey's post hoc test. […] (I) KW6002 increased yH2AX expression in tumors from mice of the LLC1 syngeneic model. Quantification of nuclear yH2AX expression.
as §1, §2

[4] = system: kidney mouse sections; test: Red Oil staining of kidney mouse sections; type: in vivo; details: Red Oil staining, kidney samples
Experimental: FIG. 6. KW6002 alleviates the cisplatin-induced nephrotoxicity associated with apoptosis, lipid metabolism, and oxidative stress. (A) Tail moment assessed by comet assay; 50 cells/condition were analyzed. (B and C) KW6002 attenuates cisplatin-induced renal lipid accumulation, assessed by Red Oil staining. […] Results are the mean±SEM (n=6-9 mice/group). (F-H) KW6002 attenuated cisplatin-induced oxidative stress in RPTEC/hTERT1 cells. (F and G) Gene expression of Nrf2 (F) and HO1 (G). […] Results are the mean±SEM (n=3 independent experiments).
10 μm frozen kidney mouse sections were fixed with ethanol (60%) then incubated for 15 min with Oil Red O Solution (Fisher Biotech) dissolved in isopropanol. After several washes with ddH2O, samples were incubated 3 min with hematoxylin. Lipid droplets are stained in red whereas nuclei appeared blue. […] RPTEC/hTERT cells were fixed with ethanol (60%) then incubated for 15 min with Oil Red O Solution. The cells were washed three times with ddH2O and incubated 3 min with hematoxylin. Coverslips were rinsed with H2O before mounting on microscope slides using glycerol gelatin aqueous slide mounting medium (Sigma). Quantifications were performed blindly using ImageJ software. […] The resulting red color images were quantified using a custom threshold (0.173 for RPTEC/hTERT cells and 0.140 for kidney stainings).

SMILES: CCn1c(=O)c2c(nc(/C=C/c3ccc(OC)c(OC)c3)n2C)n(CC)c1=O [KW-6002, 8-[(E)-2-(3,4-dimethoxyphenyl)vinyl]-1,3-diethyl-7-methyl-3,7-dihydro-1H-purine-2,6-dione]
- cisplatin-induced apoptosis [1]: inhibited cisplatin-induced apoptosis
- cisplatin-induced apoptosis ([1]; listed as KW6002): inhibiting cisplatin-induced apoptosis
- cisplatin-induced decrease in catalase activity [2]: normalized
- apoptosis: caspase 3/-7 activity ([3]; 2 μM cisplatin, 10 Nm KW6002, 24 hours, FIG. 7A): even potentiated the efficacy of cisplatin
- LLC1 sensitivity to cisplatin, including apoptosis and/or DNA damage ([3]; in vitro, data not shown): likely increases LLC1 sensitivity to cisplatin
- cisplatin-induced accumulation of lipid droplets in kidney [4]: significantly reduced
